Measured values published in patent publication US10945932B2, “Prebiotic oral care compositions containing carboxylic acids” (COLGATE-PALMOLIVE COMPANY, priority 2013, dated 2021).

Columns and labels:
Type in all cases: cell-based
Streptococcus gordonii = experiment: Metabolic activity, Biolog phenotype microarray; details: S gordonii
Description: (§1) The extent of metabolic activity of the tested bacteria in the presence of the above-mentioned acids after 24 hours and 48 hours was investigated through a high throughput phenotype microarray system (PM) for microbial cells (Biolog Inc.). Each PM can contain up to 95 different biochemical compounds (e.g. organic acids) that may act as substrates for bacteria as well as one negative control, not containing the substrates. Microarray plates were used in which the different wells of each plate were pre-loaded (by the manufacturer, Biolog Inc.) with different organic acids to be tested. Each bacterial species was tested using a separate microarray plate. Thus, a single bacterial species was tested with a variety of organic acids on each particular plate. The microarrays are based on redox technology, using cell respiration as a universal reporter. […] The observation of this color change indicates which of the substrates improve the metabolic activity and health of the cells.
(§2) Each bacterial species was collected from blood agar plates (incubated for 48 hours anaerobically at 37° C.) and transferred to an IF-0 Base inoculation fluid (Biolog Inc.), which is a nutritionally poor medium. […] A 1:5 dilution of this suspension was prepared by mixing 3 mL of the 42% transmittance cell suspension with 15 mL of an inoculation fluid (which inoculation fluid was formed by mixing 11.6 mL sterile water, 62.5 mL IF-0 base inoculation fluid and 0.9 mL of the tetrazolium dye “Biolog Redox Dye mix D”), resulting in a final cell density which was equal to 85% transmittance using a BioRad SmartSpec 3000 Photometer. For each of the acids tested, the microarray plate (obtained from the supplier (Biolog Inc.) with acid already present in the relevant wells in powder form) was directly inoculated with 100 μL/well of this 85% transmittance cell suspension.
(§3) All plates were incubated in an anaerobic atmosphere at 37° C. Color changes were measured spectrophotometrically at 492 nm (Thermo Scientific Multiskan Ascent) at 24 hrs and 48 hrs using the same plate at both time points.
(§4) The controls were also carried out three times, as above.

Actinomyces viscosus = experiment: Metabolic activity, Biolog phenotype microarray; details: A viscosus
Description: as §1, §2, §3, §4

Veillonella parvula = experiment: Metabolic activity, Biolog phenotype microarray; details: V parvula
Description: as §1, §2, §3, §4

Tannerella forsythia = experiment: Metabolic activity, Biolog phenotype microarray; details: T forsythia
Description: as §1, §2, §3, §4

[1] = system: Aggregatibacter actinomycetemcomitans; experiment: Metabolic activity, Biolog phenotype microarray; details: A actinomycetemcomitans
Description: as §1, §2, §3, §4

Streptococcus sobrinus = experiment: Metabolic activity, Biolog phenotype microarray; details: S sobrinus
Description: as §1, §2, §3, §4

Streptococcus salivarius = experiment: Metabolic activity, Biolog phenotype microarray; details: S salivarius
Description: as §1, §2, §3, §4

Prevotella intermedia = experiment: Metabolic activity, Biolog phenotype microarray; details: P intermedia
Description: as §1, §2, §3, §4

Capnocytophaga sputigena = experiment: Metabolic activity, Biolog phenotype microarray; details: C sputigena
Description: as §1, §2, §3, §4

Actinomyces naeslundii = experiment: Metabolic activity, Biolog phenotype microarray; details: A naeslundii
Description: as §1, §2, §3, §4

Porphyromonas gingivalis = experiment: Metabolic activity, Biolog phenotype microarray; details: P gingivalis
Description: as §1, §2, §3, §4

Streptococcus mutans = experiment: Metabolic activity, Biolog phenotype microarray; details: S mutans
Description: as §1, §2, §3, §4

Streptococcus mitis = experiment: Metabolic activity, Biolog phenotype microarray; details: S mitis
Description: as §1, §2, §3, §4

Streptococcus sanguinis = experiment: Metabolic activity, Biolog phenotype microarray; details: S sanguinis
Description: as §1, §2, §3, §4

Fusobacterium nucleatum = experiment: Metabolic activity, Biolog phenotype microarray; details: F nucleatum
Description: as §1, §2, §3, §4

[2] = system: beneficial oral bacteria and pathogenic oral bacteria; experiment: Metabolic activity, prebiotic effect over the whole panel; details: for prebiotic effect (metabolic activity): threshold value of 2
Description: as §1, §2, §3, §4

SMILES | metabolic activity, OD at 492 nm divided by OD of control (control = 1) (Streptococcus gordonii; 24 hrs) | metabolic activity, OD at 492 nm divided by OD of control (control = 1) (Streptococcus gordonii; 48 hrs) | metabolic activity, OD at 492 nm divided by OD of control (control = 1) (Actinomyces viscosus; 24 hrs) | metabolic activity, OD at 492 nm divided by OD of control (control = 1) (Actinomyces viscosus; 48 hrs) | metabolic activity, OD at 492 nm divided by OD of control (control = 1) (Veillonella parvula; 24 hrs) | metabolic activity, OD at 492 nm divided by OD of control (control = 1) (Veillonella parvula; 48 hrs) | metabolic activity, OD at 492 nm divided by OD of control (control = 1) (Tannerella forsythia; 24 hrs) | metabolic activity, OD at 492 nm divided by OD of control (control = 1) (Tannerella forsythia; 48 hrs) | metabolic activity, OD at 492 nm divided by OD of control (control = 1) ([1]; 24 hrs) | metabolic activity, OD at 492 nm divided by OD of control (control = 1) ([1]; 48 hrs) | metabolic activity, OD at 492 nm divided by OD of control (control = 1) (Streptococcus sobrinus; 24 hrs) | metabolic activity, OD at 492 nm divided by OD of control (control = 1) (Streptococcus sobrinus; 48 hrs) | metabolic activity, OD at 492 nm divided by OD of control (control = 1) (Streptococcus salivarius; 24 hrs) | metabolic activity, OD at 492 nm divided by OD of control (control = 1) (Streptococcus salivarius; 48 hrs) | metabolic activity, OD at 492 nm divided by OD of control (control = 1) (Prevotella intermedia; 24 hrs) | metabolic activity, OD at 492 nm divided by OD of control (control = 1) (Prevotella intermedia; 48 hrs) | metabolic activity, OD at 492 nm divided by OD of control (control = 1) (Capnocytophaga sputigena; 24 hrs) | metabolic activity, OD at 492 nm divided by OD of control (control = 1) (Capnocytophaga sputigena; 48 hrs) | metabolic activity, OD at 492 nm divided by OD of control (control = 1) (Actinomyces naeslundii; 24 hrs) | metabolic activity, OD at 492 nm divided by OD of control (control = 1) (Actinomyces naeslundii; 48 hrs) | further results
O=C(O)CC(O)(CC(=O)O)C(=O)O [Citric acid, citric acid] | 0.9010 | 0.7481 | 0.9333 | 0.9052 | 1.2832 | 2.0488 | 0.9320 | 0.8510 | 1.3098 | 1.4736 | 0.9828 | 0.8769 | 0.9935 | 0.9148 | 0.9626 | 0.8872 | 0.5992 | 0.8818 | 0.8551 | 0.7965 | metabolic activity, OD at 492 nm divided by OD of control (control = 1) (Porphyromonas gingivalis; 24 hrs): 0.8443; metabolic activity, OD at 492 nm divided by OD of control (control = 1) (Porphyromonas gingivalis; 48 hrs): 0.8692; metabolic activity, OD at 492 nm divided by OD of control (control = 1) (Streptococcus mutans; 24 hrs): 1.1156; metabolic activity, OD at 492 nm divided by OD of control (control = 1) (Streptococcus mutans; 48 hrs): 1.0700; metabolic activity, OD at 492 nm divided by OD of control (control = 1) (Streptococcus mitis; 24 hrs): 1.0814; metabolic activity, OD at 492 nm divided by OD of control (control = 1) (Streptococcus mitis; 48 hrs): 0.8953; metabolic activity, OD at 492 nm divided by OD of control (control = 1) (Streptococcus sanguinis; 24 hrs): 0.8938; metabolic activity, OD at 492 nm divided by OD of control (control = 1) (Streptococcus sanguinis; 48 hrs): 0.8704; metabolic activity, OD at 492 nm divided by OD of control (control = 1) (Fusobacterium nucleatum; 24 hrs): 0.7626; metabolic activity, OD at 492 nm divided by OD of control (control = 1) (Fusobacterium nucleatum; 48 hrs): 0.6603; prebiotic effect (metabolic activity) ([2]; 48 hrs): exhibited prebiotic effects
C[C@H](O)C(=O)O [L-lactic acid] | 0.7156 | 0.6821 | 1.5404 | 1.7915 | 3.4930 | 3.0003 | 0.8509 | 0.8314 | 1.7850 | 2.2055 | 0.8282 | 0.7747 | 0.9183 | 0.8317 | 0.9628 | 0.9344 | 1.4435 | 1.1474 | 1.6747 | 1.8440 | metabolic activity, OD at 492 nm divided by OD of control (control = 1) (Porphyromonas gingivalis; 24 hrs): 0.7480; metabolic activity, OD at 492 nm divided by OD of control (control = 1) (Porphyromonas gingivalis; 48 hrs): 0.7325; metabolic activity, OD at 492 nm divided by OD of control (control = 1) (Streptococcus mutans; 24 hrs): 0.8885; metabolic activity, OD at 492 nm divided by OD of control (control = 1) (Streptococcus mutans; 48 hrs): 0.8138; metabolic activity, OD at 492 nm divided by OD of control (control = 1) (Streptococcus mitis; 24 hrs): 1.0230; metabolic activity, OD at 492 nm divided by OD of control (control = 1) (Streptococcus mitis; 48 hrs): 0.9098; metabolic activity, OD at 492 nm divided by OD of control (control = 1) (Streptococcus sanguinis; 24 hrs): 0.9076; metabolic activity, OD at 492 nm divided by OD of control (control = 1) (Streptococcus sanguinis; 48 hrs): 0.8849; metabolic activity, OD at 492 nm divided by OD of control (control = 1) (Fusobacterium nucleatum; 24 hrs): 0.8008; metabolic activity, OD at 492 nm divided by OD of control (control = 1) (Fusobacterium nucleatum; 48 hrs): 0.7884; prebiotic effect (metabolic activity) ([2]; 24 hrs): exhibited prebiotic effects; speed of metabolism by beneficial versus pathogenic bacteria ([2]; value of 2 reached at 24 hrs for the beneficial but not the pathogenic bacteria): metabolized faster by the beneficial bacteria than by the pathogenic bacteria
